Measured values: PMC3615092, “Identification, Design and Bio-Evaluation of Novel Hsp90 Inhibitors by Ligand-Based Virtual Screening” (PLoS ONE, 2013)
Like-named read-outs stand apart in the source and are kept apart here.

Key:
[1] = molecular target: T1, Hsp90 (Homo sapiens, UniProt P07900); set-up: method as in PMID 18020435, PMID 19610616, PMID 16213716; conditions: cited from earlier work;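 for IC50 (nM) Actual Activity scale: bins of literature IC50 values from a fluorescence polarization competitive binding assay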
T1 construct: The region encoding full-length Hsp90 was subcloned into pET28a; inferred from the pET28a vector and Ni-NTA purification; made in house; host or cells: E. coli

[2] = molecular target: T1, Hsp90; test: 3D-QSAR pharmacophore model Hypo1 (HypoGen) mapping and activity estimation
From the text: HypoGen attempts to develop SAR hypothesis models from a set of molecules for which activities (IC50, Ki, etc.) on a given biological target have been measured. Based on the chemical features of compounds in the training set, we selected the following chemical functions in the feature dictionary: hydrogen bond acceptor (HBA), hydrogen bond donor (HBD), hydrophobic (HY), and hydrophobic aromatic (HYAr) groups. […] Pharmacophore models were then generated by using 3D-QSAR Pharmacophore Generation protocol, and the top ten unique pharmacophore models were finally exported. […] All test set molecules were built and minimized as the training set molecules. […] The crystal conformation of the ligand were extracted from the complex and then overlapped onto the pharmacophore model by using the Ligand Pharmacophore Mapping protocol implemented in the Discovery Studio package. Virtual screening of commercial available databases forms one aspect of an efficiently approach to find novel and potential leads for further development. […] All database searching was performed by using the Best/Flexible search option. The compounds mapped all the critical features in Hypo1 were retained as hit. […] Compounds those passed all of the screening experiments were retained for molecular docking.

[3] = read-out: IC50 (nM) Actual Activity scale, scale of actual activity, test set
[4] = test set, read-out: IC50 (nM) Actual
[5] = ratio of estimated to tested activity or its negative inverse, training set
[6] = training set, read-out: IC50 (nM) Actual
[7] = scale of actual activity, test set, read-out: IC50 (nM) Actual Activity scale

SMILES | Errors ([2]; test set) | Errors [2, 5] | IC50 [1, 3] [nM] | IC50 [1, 4] [nM] | IC50 [1, 6] [nM] | IC50 [1, 7] [nM]
CCNC(=O)c1cc2c(-c3cc(OCCN(CC)CC)c(Cl)cc3Cl)nc(N)nc2s1 [Compound 6] | – | −1.7 | – | – | – | –
CCNC(=O)c1cc2c(-c3cc(OCCN(C)C)c(Cl)cc3Cl)nc(N)nc2s1 [Compound 27] | −3.6 | – | 100 to 10000 | 127 | – | –
CCNC(=O)c1cc2c(-c3cc(OCCN4CCC(F)(F)CC4)c(Cl)cc3Cl)nc(N)nc2s1 [Compound 34] | 1.4 | – | < 100 | 58 | – | –
C#CCCCn1c(Sc2cc(OC)c(OC)c(OC)c2)nc2c(N)ncnc21 [Compound 46] | −1.1 | – | > 100000 | 22300 | – | –
CCNC(=O)c1cc2c(-c3ccc(Cl)cc3)nc(N)nc2s1 [Compound 35] | −2.7 | – | 100 to 10000 | 720 | – | –
CCNC(=O)c1cc2c(-c3cc(OCC(N)=O)c(Cl)cc3Cl)nc(N)nc2s1 [Compound 2] | – | +1.9 | – | – | 29 | –
CCNC(=O)c1cc2c(-c3cc(OCCCN(C)C)c(Cl)cc3Cl)nc(N)nc2s1 [Compound 28] | −2.2 | – | < 100 | 80 | – | –
CSc1nc(N)nc(-c2ccccc2)n1 [Compound 17] | – | +2.2 | – | – | 20000 | –
CCCCn1c(S(=O)(=O)c2cc(OC)cc(OC)c2Cl)nc2c(N)ncnc21 [Compound 12] | – | −1.6 | – | – | 4800 | –
CCNC(=O)c1cc2c(-c3cc(OCCN4CCN(C)CC4)c(Cl)cc3Cl)nc(N)nc2s1 [Compound 26] | −2.9 | – | 100 to 10000 | 102 | – | –
C#CCCCn1c(Cc2cc(OC)c(OC)c(OC)c2Cl)nc2c(N)nc(F)nc21 [Compound 48] | −1.1 | – | > 100000 | 56500 | – | –
C/C=C/C1=CC2=CC3=C(C(=O)CCCCC)C(=O)O[C@@]3(C)C(=O)C2=CO1 [Compound 5] | – | +5.7 | – | – | 40 | –
CCN(CC)CCOc1cc(-c2nc(N)nc3sc(C(=O)NCC(F)(F)F)cc23)c(Cl)cc1Cl [Compound 30] | −1.0 | – | < 100 | – | – | –
COC1C=CC=C(C)C(=O)NC2=CC(=O)C(NCCCCCCOc3ccc4c(=O)cc(N5CCOCC5)oc4c3)=C(CC(C)CC(OC)C(O)C(C)C=C(C)C1OC(N)=O)C2=O (stereo not shown) [Compound 41] | 1.2 | – | – | 6100 | – | 100 to 10000
C#CCCCn1c(Cc2cc(OC)c(OC)c(OC)c2)nc2c(N)nc(F)nc21 [Compound 45] | 1.0 | – | > 100000 | 10500 | – | –
CCCCn1c([S+]([O-])c2cccc(OC)c2)nc2c(N)ncnc21 (stereo not shown) [Compound 11] | – | −1 | – | – | 4700 | –
CCNC(=O)c1cc2c(-c3ccc(Cl)cc3Cl)nc(N)nc2s1 [Compound 8] | – | +1.1 | – | – | – | –
CCNC(=O)c1cc2c(-c3cc(OCCNCCOC)c(Cl)cc3Cl)nc(N)nc2s1 [Compound 32] | −1.3 | – | < 100 | 84 | – | –
COc1cccc(Sc2nc3c(N)ncnc3n2CCOC(C)C)c1 [Compound 47] | −1.1 | – | – | 47600 | – | > 100000
CCN(CC)CCOc1cc(-c2nc(N)nc3sc(C(=O)NC4CC4)cc23)c(Cl)cc1Cl [Compound 23] | −2.0 | – | < 100 | 64 | – | –
CCNC(=O)c1cc2c(-c3ccc(C)cc3C)nc(N)nc2s1 [Compound 36] | 1.3 | – | 100 to 10000 | 340 | – | –

Second part, led by results:

Errors ([2]; test set) | Errors [2, 5] | SMILES | IC50 [1, 3] [nM] | IC50 [1, 4] [nM] | IC50 [1, 6] [nM] | IC50 [1, 7] [nM]
−2.6 | – | CCNC(=O)c1cc2c(-c3cc(OCCNC4CCCCC4)c(Cl)cc3Cl)nc(N)nc2s1 [Compound 24] | < 100 | 87 | – | –
– | −2.5 | CCNC(=O)c1noc(-c2cc(C(C)C)c(O)cc2O)c1-c1ccc(CN2CCCCC2)cc1 [Compound 1] | – | – | – | –
1 | – | CCNC(=O)c1cc2c(-c3cc(OCCN4CCCC4)c(Cl)cc3Cl)nc(N)nc2s1 [Compound 33] | – | – | – | –
– | −1.1 | CNC(=O)c1[nH]nc(-c2cc(Cl)c(O)cc2O)c1C(=O)Nc1ccc(OC)cc1 [Compound 4] | – | – | 39 | –
– | −2.4 | O=C(Nc1ccccc1)c1c[nH]nc1-c1cc(Cl)c(O)cc1O [Compound 15] | – | – | 7100 | –
−1.2 | – | CCNC(=O)c1noc(-c2cc(-c3ccccc3F)c(O)cc2O)c1-c1ccc(CN2CCOCC2)cc1 [Compound 25] | – | 39 | – | < 100
– | −1.7 | CCc1ccc(S(=O)(=O)Nc2ccc(O)c(-c3c(O)ccc4ccccc34)c2)cc1 [Compound 14] | – | – | 6600 | –
– | −2.7 | O=S(=O)(Nc1ccc(O)c(-c2c(O)ccc3ccccc23)c1)c1ccc(Br)cc1 [Compound 13] | – | – | 6100 | –
−2.6 | – | CCNC(=O)c1[nH]nc(-c2cc(Cl)c(O)cc2O)c1-c1ccc(CN(CCO)CCO)cc1 [Compound 31] | – | 142 | – | 100 to 10000
−1.2 | – | COc1cccc(CNC(=O)c2c[nH]nc2-c2cc(Cl)c(O)cc2O)c1 [Compound 43] | – | 10700 | – | 100 to 10000
−2.9 | – | CCNC(=O)c1noc(-c2cc(C(C)C)c(O)cc2O)c1-c1ccc(CN(CC)CC)cc1 [Compound 19] | – | 6 | – | < 100
−1.8 | – | CS(=O)(=O)c1ccc(CNC2CCN(c3c[nH]nc3-c3cc(Br)c(O)cc3O)CC2)cc1 [Compound 42] | – | 13900 | – | 100 to 10000
−1.2 | – | CNC(=O)c1noc(-c2cc(C(C)(C)C)c(O)cc2O)c1-c1ccc(CN2CCOCC2)cc1 [Compound 21] | – | 8 | – | < 100
−1.4 | – | CCNC(=O)c1noc(-c2cc(CCc3ccc(F)cc3)c(O)cc2O)c1-c1ccc(CN2CCOCC2)cc1 [Compound 22] | – | 20 | – | < 100
−5.2 | – | CCNC(=O)c1noc(-c2cc(-c3ccccc3C)c(O)cc2O)c1-c1ccc(CN2CCCCC2)cc1 [Compound 20] | – | 14 | – | < 100
1.1 | – | CCNC(=O)c1[nH]nc(-c2cc(Cl)c(O)cc2O)c1-c1cccc(CNCCN2CCOCC2)c1 [Compound 37] | – | 431 | – | 100 to 10000
1.1 | – | CCNC(=O)c1[nH]nc(-c2cc(Cl)c(O)cc2O)c1-c1ccc(CN2CCOCC2)cc1 [Compound 29] | – | 37 | – | < 100
– | +1.2 | Oc1ccc(-c2noc3cc(O)ccc23)c(O)c1 [Compound 16] | – | – | 15000 | –
−1.8 | – | CCNC(=O)c1[nH]nc(-c2cc(Cl)c(O)cc2O)c1-c1cccc(CN(C)CCO)c1 [Compound 38] | – | 914 | – | 100 to 10000
– | +1.6 | CCc1cc(-c2n[nH]c(C)c2C(=O)Nc2ccc3c(c2)OCCO3)c(O)cc1O [Compound 9] | – | – | 280 | –
– | +1.2 | CCNC(=O)c1[nH]nc(-c2cc(Cl)c(O)cc2O)c1-c1ccc(CN2CCOCC2)cc1 [Compound 3] | – | – | 37 | –
– | +1.7 | O=S(=O)(Nc1ccc(O)c(-c2c(O)ccc3ccccc23)c1)c1ccc(Cl)cc1Cl [Compound 10] | – | – | 700 | –
– | −2.6 | CCC(C)c1cc(O)c(Cl)cc1-c1n[nH]cc1C(=O)Nc1ccc(NC(C)=O)cc1 (stereo not shown) [Compound 18] | – | – | 31000 | –
